Measurements taken from patent publication US20070093520A1, “Method of treatment of diarrhea-predominant irritable bowel syndrome in a subject” (priority 2005, published 2007).

Tested on: diarrhea-predominant IBS subjects
Test: 3007 Study: open-label 52-week safety study, adverse events and withdrawals

Cc1nccn1C[C@H]1CCc2c(c3cccc4c3n2CCC4)C1=O [cilansetron, (R)-(−)-4,5,6,8,9,10-hexahydro-10-[(2-methyl-1H-imidazol-1-yl)methyl]-11H-pyrido-[3,2,1-jk]-carbazol-11-one]
TEAE: Sexual Desire Disorders (P/C group): 1 (<1%) n (%)
TEAE: Sick Sinus Syndrome (P/C group): 1 (<1%) n (%)
TEAE: Sinus Arrhythmia (P/C group): 1 (<1%) n (%)
TEAE: Sinus Congestion (P/C group): 3 (1%) n (%)
TEAE: Skin Disorder NOS (P/C group): 1 (<1%) n (%)
TEAE: Skin Injuries and Mechanical Dermatoses (P/C group): 2 (<1%) n (%)
TEAE: Skin Lesion NOS (P/C group): 2 (<1%) n (%)
TEAE: Skin Neoplasms Benign (P/C group): 1 (<1%) n (%)
TEAE: Skin Neoplasms Malignant and Unspecified (Excl Melanoma) (P/C group): 4 (1%) n (%)
TEAE: Skin Ulcer (P/C group): 1 (<1%) n (%)
TEAE: Skin and Subcutaneous Tissue Disorders (P/C group): 25 (9%) n (%)
TEAE: Skin and Subcutaneous Tissue Ulcerations (P/C group): 1 (<1%) n (%)
TEAE: Social Circumstances (P/C group): 1 (<1%) n (%)
TEAE: Soft Tissue Neoplasms Benign NEC (P/C group): 0 n (%)
TEAE: Strabismus (P/C group): 1 (<1%) n (%)
TEAE: Stress Incontinence (P/C group): 0 n (%)
TEAE: Stress Symptoms (P/C group): 1 (<1%) n (%)
TEAE: Structural and Other Bile Duct Disorders (P/C group): 1 (<1%) n (%)
TEAE: Sugar Intolerance (Excl Glucose Intolerance) (P/C group): 1 (<1%) n (%)
TEAE: Suicidal Ideation (P/C group): 1 (<1%) n (%)
TEAE: Suicidal and Self-Injurious Behaviour (P/C group): 1 (<1%) n (%)
TEAE: Supraventricular Arrhythmias (P/C group): 3 (1%) n (%)
TEAE: Supraventricular Tachycardia (P/C group): 1 (<1%) n (%)
TEAE: Surgical and Medical Procedures (P/C group): 1 (<1%) n (%)
TEAE: Sweating Increased (P/C group): 2 (<1%) n (%)
TEAE: Swelling Face (P/C group): 1 (<1%) n (%)
TEAE: Tachycardia NOS (P/C group): 0 n (%)
TEAE: Tenderness NOS (P/C group): 1 (<1%) n (%)
TEAE: Thrombocytopenia (P/C group): 1 (<1%) n (%)
TEAE: Thrombocytopenias (P/C group): 1 (<1%) n (%)
TEAE: Thrombophlebitis Superficial (P/C group): 1 (<1%) n (%)
TEAE: Thyroid Disorders NEC (P/C group): 0 n (%)
TEAE: Thyroid Hypofunction Disorders (P/C group): 1 (<1%) n (%)
TEAE: Thyroid Neoplasms (P/C group): 1 (<1%) n (%)
TEAE: Thyroid Nodule (P/C group): 1 (<1%) n (%)
TEAE: Tinnitus (P/C group): 0 n (%)
TEAE: Total Fluid Volume Decreased (P/C group): 1 (<1%) n (%)
TEAE: Tympanic Membrane Disorder NOS (P/C group): 1 (<1%) n (%)
TEAE: Tympanic Membrane Disorders (Excl Infections) (P/C group): 1 (<1%) n (%)
TEAE: Upper Respiratory Tract Signs and Symptoms (P/C group): 4 (1%) n (%)
TEAE: Urinary Abnormalities (P/C group): 1 (<1%) n (%)
TEAE: Urinary Frequency (P/C group): 1 (<1%) n (%)
TEAE: Urinary Incontinence (P/C group): 0 n (%)
TEAE: Urinary Retention (P/C group): 0 n (%)
TEAE: Urinary Tract Lithiasis (Excl Renal) (P/C group): 0 n (%)
TEAE: Urinary Tract Signs and Symptoms NEC (P/C group): 1 (<1%) n (%)
TEAE: Urine Abnormal NOS (P/C group): 0 n (%)
TEAE: Urticaria NOS (P/C group): 2 (<1%) n (%)
TEAE: Urticarias (P/C group): 2 (<1%) n (%)
TEAE: Uterine Disorders NEC* (P/C group): 0 n (%)
TEAE: Uterine Fibroids* (P/C group): 0 n (%)
TEAE: Uterine Neoplasms Benign* (P/C group): 0 n (%)
TEAE: Uterine Neoplasms* (P/C group): 0 n (%)
TEAE: Uterine Polyp NOS* (P/C group): 0 n (%)
TEAE: Vaginal Cyst* (P/C group): 0 n (%)
TEAE: Vaginal Lesion* (P/C group): 0 n (%)
TEAE: Varicose Vein Ruptured (P/C group): 0 n (%)
TEAE: Varicose Veins Non-Site Specific (P/C group): 0 n (%)
TEAE: Vascular Disorders (P/C group): 8 (3%) n (%)
TEAE: Vascular Hypertensive Disorders NEC (P/C group): 7 (3%) n (%)
TEAE: Vascular Hypotensive Disorders (P/C group): 1 (<1%) n (%)
TEAE: Ventricular Arrhythmias and Cardiac Arrest (P/C group): 1 (<1%) n (%)
TEAE: Ventricular Extrasystoles (P/C group): 0 n (%)
TEAE: Vertigo (P/C group): 1 (<1%) n (%)
TEAE: Visual Acuity Reduced (P/C group): 1 (<1%) n (%)
TEAE: Vitreous Disorder NOS (P/C group): 1 (<1%) n (%)
TEAE: Vulvovaginal Cysts and Neoplasms* (P/C group): 0 n (%)
TEAE: Vulvovaginal Dryness* (P/C group): 2 (1%) n (%)
TEAE: Vulvovaginal Signs and Symptoms* (P/C group): 2 (1%) n (%)
TEAE: Wheezing (P/C group): 0 n (%)
TEAE: Abdominal Discomfort (Placebo/Cilansetron 2 mg): 0 n (%)
TEAE: Abdominal Distension (Placebo/Cilansetron 2 mg): 6 (2%) n (%)
TEAE: Abdominal Pain Aggravated (Placebo/Cilansetron 2 mg): 0 n (%)
TEAE: Abdominal Pain Lower (Placebo/Cilansetron 2 mg): 6 (2%) n (%)
TEAE: Abdominal Pain NOS (Placebo/Cilansetron 2 mg): 21 (8%) n (%)
TEAE: Abdominal Pain Upper (Placebo/Cilansetron 2 mg): 4 (1%) n (%)
TEAE: Abdominal Rebound Tenderness (Placebo/Cilansetron 2 mg): 0 n (%)
TEAE: Abdominal Tenderness (Placebo/Cilansetron 2 mg): 4 (1%) n (%)
TEAE: Abnormal Reflexes (Placebo/Cilansetron 2 mg): 0 n (%)
TEAE: Alanine Aminotransferase Increased (Placebo/Cilansetron 2 mg): 6 (2%) n (%)
TEAE: Anal and Rectal Disorders NEC (Placebo/Cilansetron 2 mg): 1 (<1%) n (%)
TEAE: Anal and Rectal Pains (Placebo/Cilansetron 2 mg): 4 (1%) n (%)
TEAE: Anal and Rectal Signs and Symptoms (Placebo/Cilansetron 2 mg): 3 (1%) n (%)
TEAE: Animal Bite (Placebo/Cilansetron 2 mg): 1 (<1%) n (%)
TEAE: Appendicitis (Placebo/Cilansetron 2 mg): 0 n (%)
TEAE: Arthralgia (Placebo/Cilansetron 2 mg): 3 (1%) n (%)
TEAE: Arthritis NOS (Placebo/Cilansetron 2 mg): 0 n (%)
TEAE: Arthritis NOS Aggravated (Placebo/Cilansetron 2 mg): 0 n (%)
TEAE: Arthropathies NEC (Placebo/Cilansetron 2 mg): 1 (<1%) n (%)
TEAE: Arthropod Bite (Placebo/Cilansetron 2 mg): 1 (<1%) n (%)
TEAE: Arthropod Sting (Placebo/Cilansetron 2 mg): 1 (<1%) n (%)
TEAE: Aspartate Aminotransferase Increased (Placebo/Cilansetron 2 mg): 3 (1%) n (%)
TEAE: Back Injury NOS (Placebo/Cilansetron 2 mg): 0 n (%)
TEAE: Back Pain (Placebo/Cilansetron 2 mg): 6 (2%) n (%)
TEAE: Back Pain Aggravated (Placebo/Cilansetron 2 mg): 1 (<1%) n (%)
TEAE: Bacteria Identification and Serology (Excl Mycobacteria) (Placebo/Cilansetron 2 mg): 0 n (%)
TEAE: Bilirubin Urine (Placebo/Cilansetron 2 mg): 0 n (%)
TEAE: Bladder Infection NOS (Placebo/Cilansetron 2 mg): 1 (<1%) n (%)
TEAE: Blood Alkaline Phosphatase NOS Increased (Placebo/Cilansetron 2 mg): 1 (<1%) n (%)
TEAE: Blood Bilirubin Increased (Placebo/Cilansetron 2 mg): 2 (<1%) n (%)
TEAE: Blood Cholesterol Increased (Placebo/Cilansetron 2 mg): 8 (3%) n (%)
TEAE: Blood Creatine Phosphokinase Increased (Placebo/Cilansetron 2 mg): 8 (3%) n (%)
TEAE: Blood Creatine Phosphokinase Mb Increased (Placebo/Cilansetron 2 mg): 0 n (%)
TEAE: Blood Creatinine Increased (Placebo/Cilansetron 2 mg): 3 (1%) n (%)
TEAE: Blood Glucose Increased (Placebo/Cilansetron 2 mg): 0 n (%)
TEAE: Blood Potassium Increased (Placebo/Cilansetron 2 mg): 0 n (%)
TEAE: Blood Pressure Increased (Placebo/Cilansetron 2 mg): 2 (<1%) n (%)
TEAE: Blood Sodium Increased (Placebo/Cilansetron 2 mg): 0 n (%)
TEAE: Blood Triglycerides Increased (Placebo/Cilansetron 2 mg): 4 (1%) n (%)
TEAE: Blood Uric Acid Increased (Placebo/Cilansetron 2 mg): 0 n (%)
TEAE: Blood Urine Present (Placebo/Cilansetron 2 mg): 4 (1%) n (%)
TEAE: Blood in Stool (Placebo/Cilansetron 2 mg): 4 (1%) n (%)
TEAE: Bone Density Decreased (Placebo/Cilansetron 2 mg): 1 (<1%) n (%)
TEAE: Bone Disorder NOS (Placebo/Cilansetron 2 mg): 0 n (%)
TEAE: Bone Disorders NEC (Placebo/Cilansetron 2 mg): 2 (<1%) n (%)
TEAE: Bone Injury (Placebo/Cilansetron 2 mg): 0 n (%)
TEAE: Bone Spur (Placebo/Cilansetron 2 mg): 1 (<1%) n (%)
TEAE: Bronchitis Acute NOS (Placebo/Cilansetron 2 mg): 1 (<1%) n (%)
TEAE: Bronchitis NOS (Placebo/Cilansetron 2 mg): 5 (2%) n (%)
TEAE: Bronchopneumonia NOS (Placebo/Cilansetron 2 mg): 1 (<1%) n (%)
TEAE: Bunion (Placebo/Cilansetron 2 mg): 0 n (%)
TEAE: Bursal Disorders (Placebo/Cilansetron 2 mg): 3 (1%) n (%)
TEAE: Bursitis (Placebo/Cilansetron 2 mg): 2 (<1%) n (%)
TEAE: Candida Infections (Placebo/Cilansetron 2 mg): 2 (<1%) n (%)
TEAE: Candidal Infection NOS (Placebo/Cilansetron 2 mg): 1 (<1%) n (%)
TEAE: Carbohydrate Tolerance Analyses (Incl Diabetes) (Placebo/Cilansetron 2 mg): 0 n (%)
TEAE: Cardiac Auscultatory Investigations (Placebo/Cilansetron 2 mg): 0 n (%)
TEAE: Cardiac Murmur NOS (Placebo/Cilansetron 2 mg): 0 n (%)
TEAE: Carotid Bruit (Placebo/Cilansetron 2 mg): 1 (<1%) n (%)
TEAE: Carpal Tunnel Syndrome (Placebo/Cilansetron 2 mg): 1 (<1%) n (%)
TEAE: Cartilage Disorder NOS (Placebo/Cilansetron 2 mg): 0 n (%)
TEAE: Cartilage Disorders (Placebo/Cilansetron 2 mg): 0 n (%)
TEAE: Cellulitis (Placebo/Cilansetron 2 mg): 1 (<1%) n (%)
TEAE: Cervical Spasm (Placebo/Cilansetron 2 mg): 0 n (%)
TEAE: Change in Bowel Habit NOS (Placebo/Cilansetron 2 mg): 1 (<1%) n (%)
TEAE: Chapped Lips (Placebo/Cilansetron 2 mg): 1 (<1%) n (%)
TEAE: Chest Wall Pain (Placebo/Cilansetron 2 mg): 2 (<1%) n (%)
TEAE: Cholesterol Analyses (Placebo/Cilansetron 2 mg): 8 (3%) n (%)
TEAE: Colitis (Excl Infective) (Placebo/Cilansetron 2 mg): 1 (<1%) n (%)
TEAE: Colitis Ischaemic (Placebo/Cilansetron 2 mg): 1 (<1%) n (%)
TEAE: Colonic Polyp (Placebo/Cilansetron 2 mg): 0 n (%)
TEAE: Connective Tissue Disorders (Excl Le) (Placebo/Cilansetron 2 mg): 2 (<1%) n (%)
TEAE: Constipation (Placebo/Cilansetron 2 mg): 62 (22%) n (%)
TEAE: Cystitis NOS (Placebo/Cilansetron 2 mg): 0 n (%)
TEAE: Dental Disorders NEC (Placebo/Cilansetron 2 mg): 0 n (%)
TEAE: Dental Infections - Pathogen Class Unspecified (Placebo/Cilansetron 2 mg): 2 (<1%) n (%)
TEAE: Dental Pain and Sensation Disorders (Placebo/Cilansetron 2 mg): 1 (<1%) n (%)
TEAE: Diaphragmatic Hernias (Placebo/Cilansetron 2 mg): 0 n (%)
TEAE: Diarrhoea (Excl Infective) (Placebo/Cilansetron 2 mg): 15 (5%) n (%)
TEAE: Diarrhoea Aggravated (Placebo/Cilansetron 2 mg): 2 (<1%) n (%)
TEAE: Diarrhoea Haemorrhagic (Placebo/Cilansetron 2 mg): 2 (<1%) n (%)
TEAE: Diarrhoea NOS (Placebo/Cilansetron 2 mg): 9 (3%) n (%)
TEAE: Disturbances in Consciousness NEC (Placebo/Cilansetron 2 mg): 1 (<1%) n (%)
TEAE: Diverticulitis NOS (Placebo/Cilansetron 2 mg): 1 (<1%) n (%)
TEAE: Diverticulum Inflammations (Placebo/Cilansetron 2 mg): 1 (<1%) n (%)
TEAE: Dizziness (Placebo/Cilansetron 2 mg): 2 (<1%) n (%)
TEAE: Dry Mouth (Placebo/Cilansetron 2 mg): 1 (<1%) n (%)
TEAE: Dysarthria (Placebo/Cilansetron 2 mg): 1 (<1%) n (%)
TEAE: Dyskinesias and Movement Disorders NEC (Placebo/Cilansetron 2 mg): 1 (<1%) n (%)
TEAE: Dyspepsia (Placebo/Cilansetron 2 mg): 7 (3%) n (%)
TEAE: Dyspepsia Aggravated (Placebo/Cilansetron 2 mg): 0 n (%)
TEAE: Dyspeptic Signs and Symptoms (Placebo/Cilansetron 2 mg): 7 (3%) n (%)
TEAE: ECG Investigations (Placebo/Cilansetron 2 mg): 1 (<1%) n (%)
TEAE: Ear Infection NOS (Placebo/Cilansetron 2 mg): 2 (<1%) n (%)
TEAE: Ear Infections (Placebo/Cilansetron 2 mg): 3 (1%) n (%)
TEAE: Electrocardiogram Qrs Complex Abnormal (Placebo/Cilansetron 2 mg): 0 n (%)
TEAE: Electrocardiogram T Wave Inversion (Placebo/Cilansetron 2 mg): 1 (<1%) n (%)
TEAE: Enteritis (Placebo/Cilansetron 2 mg): 1 (<1%) n (%)
TEAE: Epigastric Discomfort (Placebo/Cilansetron 2 mg): 1 (<1%) n (%)
